Measured values from US20210353749A1, “GUANABENZ AS AN ADJUVANT FOR IMMUNOTHERAPY” (UNIVERSITÉ CATHOLIQUE DE LOUVAIN, priority 2018, published 2021).

How the values were obtained:
[1] = test system: Mouse TCRP1A CD8+ T cells; test: CD107 cytotoxicity assay (degranulation assay), mouse T cells; assay type: cell-based; details: alprenolol 5 μM or 20 μM, 16 hours, vs control (PBS); FIG. 11A
Experimental: Mouse TCRP1A CD8^+ T cells: P1A-specific (TCRP1A) CD8^+ T cells were isolated from spleens and lymph nodes of TCRP1A mice using anti-mouse CD8a (Ly-2) MicroBeads (Miltenyi Biotec).
CD107 cytotoxicity assay (Degranulation assay): TCRP1A CD8^+ T cells were plated at 50,000 cells per well in a 96 U plate with different concentrations of guanabenz and incubated at 37° C. overnight prior to their use in the assay on the next day. On the day of the assay, the culture supernatant was removed from the cells and the cells were washed once with complete medium to remove the drug. The target cells L1210-P1A-B7.1 were added to the wells at a ratio of 1:1. Control wells containing either only T cells or target cells were also included for each plate. CD107a-APC was added to each well at the same time as addition of the target cells. The plate was then incubated at 37° C. for 90 minutes. At the end of the incubation period the cells were harvested and washed once with PBS. They were stained with anti-mouse CD8-Bv421 antibody for 15 minutes. The cells were then washed and resuspended in PBS and analyzed using FACS Fortessa flow cytometer. Human CD8^+ T cell degranulation was evaluated in a similar way. To induce CD8^+ T cell degranulation, T2 cells loaded with synthetic WT1126-134 peptide (10^6 T2 cells were incubated for 1 hour in 200 μL Optimem medium with 100 μmol/L synthetic peptide at 37° C.) were used as target cells.
(§1) T cells were incubated with guanabenz (10, 20, or 40 μM) for 16 h to 24 h as indicated. Mice received a daily intra-peritoneal injection of guanabenz (5 mg/kg) or vehicle (PBS) from the day of randomization (and the day of ACT when applicable) until the day of sacrifice.
CD107 cytotoxicity assay (Degranulation assay): the assay was carried out as described hereinabove (see Example 1) with different 20 μM guanabenz or different concentrations of alprenolol or sunitinib, as indicated.
T cells were incubated with 20 μM guanabenz for 16 h as indicated.
T cells were incubated with alprenolol (5 or 20 μM) for 16 h as indicated. […]

TiRP tumor = test: TiRP melanoma model with adoptive cell transfer of activated P1A-specific CD8+ T cells; assay type: in vivo, mouse; details: alprenolol 5 mg/kg i.p. daily with ACT
Description: TiRP mice: TiRP mice have been created by crossing Ink4a/Arf^flox/flox mice with mice carrying a transgenic construct controlled by the tyrosinase promoter and driving the expression of H-Ras^12V and Trap1a which encodes a MAGE-type tumor antigen P1A; the promoter is separated from the coding region by a stop cassette made of a floxed self-deleting CreER (Huijbers et al., 2006, Cancer Res 66, 3278-3286). Those mice were backcrossed to a B10.D2 background and bred to homozygosity. TCRP1A mice heterozygous for the H-2Ld/P1A35-43-specific TCR transgene were kept on the B10.D2; Rag1^−/− background (Shanker et al., 2004, J Immunol 172, 5069-5077). All mice used in this study were produced under specific pathogen free (SPF) conditions at the animal facility of the Ludwig Institute for Cancer Research. All the rules concerning animal welfare have been respected according to the 2010/63/EU Directive. All procedures were performed with the approval of the local Animal Ethical Committee, with reference 2015/UCL/MD/15.
A fresh solution of 40H-Tamoxifen was prepared by dissolving 40H-Tamoxifen (Imaginechem) in 100% ethanol and mineral oil (ratio 1:9) followed by 30-min sonication, and injected subcutaneously (2 mg/200 μL per mouse) in the neck area of gender-matched 7 weeks old TiRP mice. Tumor appearance was monitored daily and tumors were measured three times/week. Tumor volume (in mm^3) was calculated by the following formula: Volume=width^2×length/2. Tumor-bearing TiRP mice were randomized based on the tumor size when average volume was 400 mm^3, 500 mm^3 or 1000 mm^3 as indicated.
as §1
For the adoptive cell transfer (ACT), P1A-specific (TCRP1A) CD8^+ T cells were isolated from spleens and lymph nodes of TCRP1A mice as described hereinabove, and stimulated in vitro by co-culture with irradiated (10.000 rads) L1210-P1A-B7.1 cells (Gajewski et al., 1995, J Immunol 154, 5637-5648) at 1:2 ratio (0.5×10^5 CD8^+ T cells and 10^5 L1210-P1A-B7.1 cells per well in 48-well plates) in IMDM (GIBCO) containing 10% fetal bovine serum supplemented with L-arginine (0.55 mM, Merck), L-asparagine (0.24 mM, Merck), glutamine (1.5 mM, Merck), betamercaptoethanol (50 μM, Sigma), 50 UmL^−1 penicillin and […] (Life Technologies). Four days later, TCRP1A CD8^+ T cells were purified on a Lymphoprep gradient (StemCell) and 10^7 living cells were injected intravenously in 200 μL PBS in TiRP-tumor bearing mice on the day of randomization.
Mice received a daily intra-peritoneal injection of alprenolol (5 mg/kg) or vehicle (PBS) from the day of ACT until the day of sacrifice.
T cells were incubated with sunitinib (0.1, 0.3, 0.8, 2.5 or 4 μM) for 16 h as indicated. Mice received a daily dose of sunitinib (20 mg/kg) or vehicle (PBS) by oral gavage from the day of ACT until the day of sacrifice.

SMILES: C=CCc1ccccc1OCC(O)CNC(C)C (stereo not drawn) [alprenolol]
- T cell degranulation (FACS detection of CD107a) [1]: did no significantly increase
- tumor infiltration of CD8+ T cells (tetramer+ CD8+ T cells among total CD45+ cells) (TiRP tumor; 7 days after ACT, FIG. 11C): not increased
- tumor growth (TiRP tumor; day 0 to day 10, vs ACT alone, FIG. 11B): not significantly decreased
